Columns and labels:
Assay type in all cases: in vivo
[1] = tested on: barnyardgrass (Echinochloa crus-galli); assay: Test A preemergence, visual plant response rating; conditions: for Barnyardgrass plant response rating: 125 g ai/ha, preemergence, 0 to 100 scale, 0 no effect, 100 complete control; for Barnyardgrass plant response rating (0 to 100 scale): 500 g ai/ha Preemergence, approx. 10 days
Method in brief: (§1)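 Ratings 0–100 (100 = complete control), visual, vs untreated controls at ~10 days. Application pre- or postemergence; solvent mixture with surfactant; loam/sand medium.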

[2] = tested on: pigweed (Amaranthus retroflexus); assay: Test A preemergence, visual plant response rating; conditions: for Pigweed plant response rating: 125 g ai/ha, preemergence, 0 to 100 scale, 0 no effect, 100 complete control; for Pigweed plant response rating (0 to 100 scale): 500 g ai/ha Preemergence, approx. 10 days
Method in brief: as §1

[3] = tested on: ragweed (common ragweed, Ambrosia elatior); assay: Test A preemergence, visual plant response rating; conditions: for Ragweed plant response rating: 125 g ai/ha, preemergence, 0 to 100 scale, 0 no effect, 100 complete control; for Ragweed plant response rating (0 to 100 scale): 500 g ai/ha Preemergence, approx. 10 days
Method in brief: as §1

[4] = tested on: Italian ryegrass (Lolium multiflorum); assay: Test A preemergence, visual plant response rating; conditions: for Ryegrass, Italian plant response rating: 125 g ai/ha, preemergence, 0 to 100 scale, 0 no effect, 100 complete control; for Ryegrass, Italian plant response rating (0 to 100 scale): 500 g ai/ha Preemergence, approx. 10 days
Method in brief: as §1

kochia (Kochia scoparia) [5] = assay: Test A preemergence, visual plant response rating; conditions: for Kochia plant response rating: 125 g ai/ha, preemergence, 0 to 100 scale, 0 no effect, 100 complete control; for Kochia plant response rating (0 to 100 scale): 500 g ai/ha Preemergence, approx. 10 days
Method in brief: as §1

[6] = tested on: foxtail, giant (giant foxtail, Setaria faberii); assay: Test A preemergence, visual plant response rating; conditions: for Foxtail, Giant plant response rating: 125 g ai/ha, preemergence, 0 to 100 scale, 0 no effect, 100 complete control; for Foxtail, Giant plant response rating (0 to 100 scale): 500 g ai/ha Preemergence, approx. 10 days
Method in brief: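 Greenhouse pot test in loam–sand soil mix: compound in a surfactant-containing non-phytotoxic solvent applied preemergence (directed soil spray) or postemergence (one- to two-leaf plants, 2–10 cm). Injury scored visually after ~10 days, 0–100.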

[7] = tested on: wheat (Triticum aestivum); assay: Test A postemergence, visual plant response rating; conditions: for Wheat plant response rating (0 to 100 scale): 500 g ai/ha, postemergence, 0 is no effect, 100 is complete control; for Wheat plant response rating: Postemergence, 125 g ai/ha, 0 to 100 scale (0 no effect, 100 complete control)
Method in brief: as §1

[8] = tested on: barnyardgrass (Echinochloa crus-galli); assay: Test A postemergence, visual plant response rating; conditions: for Barnyardgrass plant response rating (0 to 100 scale): 500 g ai/ha, postemergence, 0 is no effect, 100 is complete control; for Barnyardgrass plant response rating: Postemergence, 125 g ai/ha, 0 to 100 scale (0 no effect, 100 complete control)
Method in brief: as §1

[9] = tested on: pigweed (Amaranthus retroflexus); assay: Test A postemergence, visual plant response rating; conditions: for Pigweed plant response rating (0 to 100 scale): 500 g ai/ha, postemergence, 0 is no effect, 100 is complete control; for Pigweed plant response rating: Postemergence, 125 g ai/ha, 0 to 100 scale (0 no effect, 100 complete control)
Method in brief: as §1

[10] = tested on: galium (catchweed bedstraw, Galium aparine); assay: Test A postemergence, visual plant response rating; conditions: for Galium plant response rating (0 to 100 scale): 500 g ai/ha, postemergence, 0 is no effect, 100 is complete control; for Galium plant response rating: Postemergence, 125 g ai/ha, 0 to 100 scale (0 no effect, 100 complete control)
Method in brief: as §1

[11] = tested on: blackgrass (Alopecurus myosuroides); assay: Test A postemergence, visual plant response rating; conditions: for Blackgrass plant response rating (0 to 100 scale): 500 g ai/ha, postemergence, 0 is no effect, 100 is complete control; for Blackgrass plant response rating: Postemergence, 125 g ai/ha, 0 to 100 scale (0 no effect, 100 complete control)
Method in brief: as §1

[12] = tested on: ragweed (common ragweed, Ambrosia elatior); assay: Test A postemergence, visual plant response rating; conditions: for Ragweed plant response rating (0 to 100 scale): 500 g ai/ha, postemergence, 0 is no effect, 100 is complete control; for Ragweed plant response rating: Postemergence, 125 g ai/ha, 0 to 100 scale (0 no effect, 100 complete control)
Method in brief: as §1

corn (Zea mays) = assay: Test A postemergence, visual plant response rating; conditions: for Corn plant response rating (0 to 100 scale): 500 g ai/ha, postemergence, 0 is no effect, 100 is complete control; for Corn plant response rating: Postemergence, 125 g ai/ha, 0 to 100 scale (0 no effect, 100 complete control)
Method in brief: as §1

[13] = tested on: Italian ryegrass (Lolium multiflorum); assay: Test A postemergence, visual plant response rating; conditions: for Ryegrass, Italian plant response rating (0 to 100 scale): 500 g ai/ha, postemergence, 0 is no effect, 100 is complete control; for Ryegrass, Italian plant response rating: Postemergence, 125 g ai/ha, 0 to 100 scale (0 no effect, 100 complete control)
Method in brief: as §1

kochia (Kochia scoparia) [14] = assay: Test A postemergence, visual plant response rating; conditions: for Kochia plant response rating (0 to 100 scale): 500 g ai/ha, postemergence, 0 is no effect, 100 is complete control; for Kochia plant response rating: Postemergence, 125 g ai/ha, 0 to 100 scale (0 no effect, 100 complete control)
Method in brief: as §1

[15] = tested on: foxtail, giant (giant foxtail, Setaria faberii); assay: Test A postemergence, visual plant response rating; conditions: for Foxtail, Giant plant response rating (0 to 100 scale): 500 g ai/ha, postemergence, 0 is no effect, 100 is complete control; for Foxtail, Giant plant response rating: Postemergence, 125 g ai/ha, 0 to 100 scale (0 no effect, 100 complete control)
Method in brief: as §1

[16] = tested on: barnyardgrass (Echinochloa crus-galli); assay: Test B flooded paddy test, visual plant response rating; conditions: 250 g ai/ha, Flood, applied to paddy water, 2-leaf stage, evaluated after 13 to 15 days
Method in brief: (§2)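 Visual scores compare treated plants with controls after 13 to 15 days of greenhouse growth. Treatment was made into paddy water standing 3 cm above the soil, with plants at the 2-leaf stage and flooding maintained throughout.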

[17] = tested on: sedge, umbrella (small-flower umbrella sedge, Cyperus difformis); assay: as above; conditions: 250 g ai/ha, Flood, applied to paddy water, 2-leaf stage, evaluated after 13 to 15 days
Method in brief: as §2

[18] = tested on: ducksalad (Heteranhera limosa); assay: as above; conditions: 250 g ai/ha, Flood, applied to paddy water, 2-leaf stage, evaluated after 13 to 15 days
Method in brief: as §2

rice (Oryza sativa) = assay: as above; conditions: 250 g ai/ha, Flood, applied to paddy water, 2-leaf stage, evaluated after 13 to 15 days
Method in brief: as §2

Question: Which results are given for CO/N=C(\c1sccc1C)c1c(O)c(C)nn(C)c1=O [Compound 42]?
Answer: Barnyardgrass plant response rating [1]: 0; Barnyardgrass plant response rating (0 to 100 scale) [1]: 0; Pigweed plant response rating [2]: 0; Pigweed plant response rating (0 to 100 scale) [2]: 20; Ragweed plant response rating [3]: 60; Ragweed plant response rating (0 to 100 scale) [3]: 80; Ryegrass, Italian plant response rating [4]: 0; Ryegrass, Italian plant response rating (0 to 100 scale) [4]: 20; Kochia plant response rating (kochia (Kochia scoparia) [5]): 0; Kochia plant response rating (0 to 100 scale) (kochia (Kochia scoparia) [5]): 10; Foxtail, Giant plant response rating [6]: 0; Foxtail, Giant plant response rating (0 to 100 scale) [6]: 0; Wheat plant response rating (0 to 100 scale) [7]: 0; Wheat plant response rating [7]: 0; Barnyardgrass plant response rating (0 to 100 scale) [8]: 10; Barnyardgrass plant response rating [8]: 0; Pigweed plant response rating (0 to 100 scale) [9]: 80; Pigweed plant response rating [9]: 60; Galium plant response rating (0 to 100 scale) [10]: 60; Galium plant response rating [10]: 70; Blackgrass plant response rating (0 to 100 scale) [11]: 0; Blackgrass plant response rating [11]: 0; Ragweed plant response rating (0 to 100 scale) [12]: 50; Ragweed plant response rating [12]: 40; Corn plant response rating (0 to 100 scale) (corn (Zea mays)): 0; Corn plant response rating (corn (Zea mays)): 0; Ryegrass, Italian plant response rating (0 to 100 scale) [13]: 70; Ryegrass, Italian plant response rating [13]: 50; Kochia plant response rating (0 to 100 scale) (kochia (Kochia scoparia) [14]): 50; Kochia plant response rating (kochia (Kochia scoparia) [14]): 20; Foxtail, Giant plant response rating (0 to 100 scale) [15]: 10; Foxtail, Giant plant response rating [15]: 0; Plant response rating, Barnyardgrass (0 to 100 scale, 0 is no effect, 100 is complete control) [16]: 15; Plant response rating, Sedge, Umbrella (0 to 100 scale, 0 is no effect, 100 is complete control) [17]: 20; Plant response rating, Ducksalad (0 to 100 scale, 0 is no effect, 100 is complete control) [18]: 20; Plant response rating, Rice (0 to 100 scale, 0 is no effect, 100 is complete control) (rice (Oryza sativa)): 10

Question: Which results are given for CO/N=C(\c1ccsc1C)c1c(O)c(C)nn(C)c1=O [Compound 43]?
Answer: Barnyardgrass plant response rating [1]: 0; Barnyardgrass plant response rating (0 to 100 scale) [1]: 0; Pigweed plant response rating [2]: 0; Pigweed plant response rating (0 to 100 scale) [2]: 30; Ragweed plant response rating [3]: 0; Ragweed plant response rating (0 to 100 scale) [3]: 20; Ryegrass, Italian plant response rating [4]: 0; Ryegrass, Italian plant response rating (0 to 100 scale) [4]: 0; Kochia plant response rating (kochia (Kochia scoparia) [5]): 0; Kochia plant response rating (0 to 100 scale) (kochia (Kochia scoparia) [5]): 0; Foxtail, Giant plant response rating [6]: 0; Foxtail, Giant plant response rating (0 to 100 scale) [6]: 0; Wheat plant response rating (0 to 100 scale) [7]: 0; Wheat plant response rating [7]: 0; Barnyardgrass plant response rating (0 to 100 scale) [8]: 0; Barnyardgrass plant response rating [8]: 0; Pigweed plant response rating (0 to 100 scale) [9]: 60; Pigweed plant response rating [9]: 20; Galium plant response rating (0 to 100 scale) [10]: 50; Galium plant response rating [10]: 20; Blackgrass plant response rating (0 to 100 scale) [11]: 20; Blackgrass plant response rating [11]: 0; Ragweed plant response rating (0 to 100 scale) [12]: 30; Ragweed plant response rating [12]: 20; Corn plant response rating (0 to 100 scale) (corn (Zea mays)): 0; Corn plant response rating (corn (Zea mays)): 0; Ryegrass, Italian plant response rating (0 to 100 scale) [13]: 30; Ryegrass, Italian plant response rating [13]: 0; Kochia plant response rating (0 to 100 scale) (kochia (Kochia scoparia) [14]): 20; Kochia plant response rating (kochia (Kochia scoparia) [14]): 0; Foxtail, Giant plant response rating (0 to 100 scale) [15]: 0; Foxtail, Giant plant response rating [15]: 0; Plant response rating, Barnyardgrass (0 to 100 scale, 0 is no effect, 100 is complete control) [16]: 0; Plant response rating, Sedge, Umbrella (0 to 100 scale, 0 is no effect, 100 is complete control) [17]: 0; Plant response rating, Ducksalad (0 to 100 scale, 0 is no effect, 100 is complete control) [18]: 0; Plant response rating, Rice (0 to 100 scale, 0 is no effect, 100 is complete control) (rice (Oryza sativa)): 0

— patent publication US20210045385A1, “PYRIDAZINONE-SUBSTITUTED KETOXIMES AS HERBICIDES” (FMC Corporation, priority 2018, published 2021)
